Results on 3 compounds are retold here after patent US5066783A, “Antiviral peptides and means for treating herpes infections” (priority 1988, dated 1991).

SMILES strings stand for the structures. Where a SMILES comes first, the peptide text is derived from it. Bridges are numbered along the chain shown (N, C = ends). [ ]: non-standard residue; d: D form. The star is where a group is joined. Ileψ(thiazoline)Cys = CC[C@H](C)[C@H](N)C1=N[C@H](C(=O)*)CS1; dOrn = NCCC[C@@H](N)C(=O)O

The target in assay [1] is HSV-2 ribonucleotide reductase (Human herpesvirus 2, UniProt P89462). In words: HSV-2 ribonucleotide reductase inhibition. The note with it: data not shown. The format is biochemical. An excerpt: The precipitate was removed by centrifugation.
In a further assay the test system is HSV-1 strain MP-12. Kind of assay: Guinea pig cutaneous herpes infection model, HSV-1. The format is in vivo. The note with it: for skin lesion score: HSV-1 group, mean score.
A further assay concerns HSV-2 strain HG-52. Kind of assay: Guinea pig cutaneous herpes infection model, HSV-2. The format is in vivo. The note with it: for skin lesion score: HSV-2 group, mean score.
A further assay deals with HSV-2. Kind of assay: HSV-2 replication (virus yield) in serum-starved BHK 21/C13 cells. The format is cell-based. The following applies: 1 mM.
Assay [2] deals with cellular ribonucleotide reductase from 96-V-2(600) cells. The following applies: up to 1 mM; FIG. 1.
Assay [3] concerns cellular ribonucleotide reductase from BHK21/C13 cells. The following applies: up to 1 mM; data not shown.
For assay [4], the target named is ribonucleotide reductase from HSV-1 (strain F)-infected BHK-21/C13 cells (Human herpesvirus 1, UniProt P08543). Kind of assay: HSV-1 ribonucleotide reductase (CDP reductase) inhibition. The note with it: for % CDP REDUCTASE ACTIVITY: 75 μg protein extract.
The subject of assay [5] is HSV-1 ribonucleotide reductase. Kind of assay: Neutralization of HSV-1 ribonucleotide reductase by anti-nonapeptide IgG, preadsorbed with nonapeptide. The following applies: FIG. 2.
The test system of the next assay is HSV-1. The note with it: A. Alarcon et al., Antiviral Research, 4, 231 (1984); cited from earlier work.
[6] abbreviates: 4 hours post infection, A (after absorption).
Setting [7] is: 4 hours post infection, B (before absorption).
The mark [8] stands for this setting: 12 hours post infection, A (after absorption).
Setting [9] is: 12 hours post infection, B (before absorption).
Where [10] appears, read: 24 hours post infection, A (after absorption).
The mark [11] stands for this setting: 24 hours post infection, B (before absorption).
[12] abbreviates: 36 hours post infection, A (after absorption).
Setting [13] is: 36 hours post infection, B (before absorption).

Chain of ribonucleotide reductase from HSV-1 (strain F)-infected BHK-21/C13 cells (P08543 whole entry): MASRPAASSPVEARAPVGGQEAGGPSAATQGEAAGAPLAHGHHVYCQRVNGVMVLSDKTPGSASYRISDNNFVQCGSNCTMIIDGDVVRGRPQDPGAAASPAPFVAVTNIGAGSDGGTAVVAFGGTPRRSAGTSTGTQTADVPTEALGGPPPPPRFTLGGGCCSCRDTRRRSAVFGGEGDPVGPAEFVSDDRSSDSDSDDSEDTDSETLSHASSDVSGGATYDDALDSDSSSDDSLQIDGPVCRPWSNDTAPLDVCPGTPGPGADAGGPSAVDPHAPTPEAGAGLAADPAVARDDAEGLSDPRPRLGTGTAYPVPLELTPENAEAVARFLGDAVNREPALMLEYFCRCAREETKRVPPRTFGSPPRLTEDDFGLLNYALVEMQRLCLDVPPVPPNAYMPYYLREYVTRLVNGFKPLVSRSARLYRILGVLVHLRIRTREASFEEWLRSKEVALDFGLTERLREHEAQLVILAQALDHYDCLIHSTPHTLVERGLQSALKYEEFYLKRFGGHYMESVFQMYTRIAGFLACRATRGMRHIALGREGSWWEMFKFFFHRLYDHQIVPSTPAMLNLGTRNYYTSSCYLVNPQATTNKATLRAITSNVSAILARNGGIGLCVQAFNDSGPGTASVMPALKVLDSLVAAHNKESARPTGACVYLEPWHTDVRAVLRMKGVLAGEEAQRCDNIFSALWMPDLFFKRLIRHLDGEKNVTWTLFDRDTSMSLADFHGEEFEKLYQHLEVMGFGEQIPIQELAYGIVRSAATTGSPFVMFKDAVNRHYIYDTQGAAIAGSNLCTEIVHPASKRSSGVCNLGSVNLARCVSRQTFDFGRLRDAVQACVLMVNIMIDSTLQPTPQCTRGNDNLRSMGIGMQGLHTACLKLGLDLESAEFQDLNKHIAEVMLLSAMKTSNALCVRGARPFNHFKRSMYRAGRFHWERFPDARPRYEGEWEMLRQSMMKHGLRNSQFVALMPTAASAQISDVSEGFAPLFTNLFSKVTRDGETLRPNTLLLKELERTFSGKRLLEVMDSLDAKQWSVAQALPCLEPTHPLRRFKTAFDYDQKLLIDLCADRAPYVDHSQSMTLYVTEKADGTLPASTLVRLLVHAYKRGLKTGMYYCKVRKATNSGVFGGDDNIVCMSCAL
Chain of HSV-2 ribonucleotide reductase (P89462 whole entry): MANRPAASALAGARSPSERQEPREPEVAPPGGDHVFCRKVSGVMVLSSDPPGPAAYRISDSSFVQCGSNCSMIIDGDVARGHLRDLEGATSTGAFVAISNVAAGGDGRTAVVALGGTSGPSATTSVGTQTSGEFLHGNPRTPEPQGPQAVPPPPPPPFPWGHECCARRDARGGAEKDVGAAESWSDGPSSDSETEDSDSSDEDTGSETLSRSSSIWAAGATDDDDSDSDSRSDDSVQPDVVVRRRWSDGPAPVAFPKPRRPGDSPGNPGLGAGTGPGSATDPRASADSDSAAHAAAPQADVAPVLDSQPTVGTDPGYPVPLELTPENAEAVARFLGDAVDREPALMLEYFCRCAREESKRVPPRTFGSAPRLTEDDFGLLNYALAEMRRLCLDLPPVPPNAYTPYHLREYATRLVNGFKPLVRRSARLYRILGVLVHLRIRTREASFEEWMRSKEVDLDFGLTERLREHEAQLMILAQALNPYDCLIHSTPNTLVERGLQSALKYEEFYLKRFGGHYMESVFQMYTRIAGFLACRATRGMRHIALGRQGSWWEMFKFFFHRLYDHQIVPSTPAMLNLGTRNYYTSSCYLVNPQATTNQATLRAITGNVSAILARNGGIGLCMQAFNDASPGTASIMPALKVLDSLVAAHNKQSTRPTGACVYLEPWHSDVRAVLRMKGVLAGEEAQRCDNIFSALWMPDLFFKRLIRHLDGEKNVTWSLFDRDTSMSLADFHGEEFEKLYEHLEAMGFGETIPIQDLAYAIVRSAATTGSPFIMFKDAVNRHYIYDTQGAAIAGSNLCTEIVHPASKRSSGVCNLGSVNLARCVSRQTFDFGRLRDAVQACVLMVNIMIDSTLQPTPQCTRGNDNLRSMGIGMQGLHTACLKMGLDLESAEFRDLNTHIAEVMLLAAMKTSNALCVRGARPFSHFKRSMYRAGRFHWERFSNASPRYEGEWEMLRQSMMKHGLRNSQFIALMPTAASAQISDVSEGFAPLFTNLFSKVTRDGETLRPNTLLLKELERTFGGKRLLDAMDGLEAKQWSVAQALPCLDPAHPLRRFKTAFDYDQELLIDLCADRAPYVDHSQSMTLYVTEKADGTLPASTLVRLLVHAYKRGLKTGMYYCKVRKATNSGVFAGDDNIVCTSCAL

As to `CC(C)C[C@H](NC(=O)[C@H](CC(=O)O)NC(=O)[C@H](CC(N)=O)NC(=O)[C@@H](NC(=O)[C@@H](NC(=O)[C@H](C)NC(=O)CNC(=O)[C@H](C)NC(=O)[C@@H](N)Cc1ccc(O)cc1)C(C)C)C(C)C)C(=O)O` [HSV 7-15, L-tyrosyl-L-alanyl-glycyl-L-alanyl-L-valyl-L-valyl-L-asparagyl-L-aspartyl- L-leucine], in [1], the “inhibition curve for the HSV-2 enzyme compared with HSV-1” value was “nearly identical”. For the same compound, in the assay on HSV-1 strain MP-12 (summary of TABLE III), the “shortening the healing time and diminishing the symptoms of HSV-1 infection” value is listed as “effective”. The “shortening healing time and alleviating the symptoms of HSV-2” value in the assay on HSV-2 strain HG-52 (summary of TABLE IV) was “effective”. Also, the virus titer is on record as 0.001 PFU/cell with HSV-2 (setting [6]); 0.0006 PFU/cell with HSV-2 (setting [7]); 0.01 PFU/cell in the assay on HSV-2 (setting [8]); 0.006 PFU/cell with HSV-2 (setting [9]); 0.5 PFU/cell with HSV-2 (setting [10]); 0.4 PFU/cell with HSV-2 (setting [11]). Also, the virus titer in the assay with HSV-2 (setting [12]) came out at 1.1 PFU/cell; in the assay on HSV-2 (setting [13]), 0.8 PFU/cell. Also, the “sensitivity of cellular enzyme to the peptide” value in assay [2] and in assay [3] was “completely insensitive” each time. For the same compound, the “% CDP REDUCTASE ACTIVITY” value is on record as 96% in assay [4] (10 μM peptide); 94% in [4] (25 μM peptide); 80% in assay [4] (50 μM peptide); 45% in assay [4] (100 μM peptide); 9% in assay [4] (400 μM peptide). Moreover, the “concentration giving total inhibition” value in [4] (FIG. 1, 50 μg viral enzyme) is 400 µM. The “nonapeptide concentration at which equivalence was reached (IgG neutralizing capacity eliminated)” value in assay [5] is 10 µM.
On to `CC[C@H](C)[C@H](N)C1=N[C@H](C(=O)N[C@@H](CC(C)C)C(=O)N[C@H](CCC(=O)O)C(=O)N[C@H](C(=O)N[C@H]2CCCCNC(=O)[C@H](CC(N)=O)NC(=O)[C@@H](CC(=O)O)NC(=O)[C@H](Cc3cnc[nH]3)NC(=O)[C@@H](Cc3ccccc3)NC(=O)[C@H]([C@@H](C)CC)NC(=O)[C@@H](CCCN)NC2=O)[C@@H](C)CC)CS1` [Bacitracin, bacitracin, reference compound] ({Ileψ(thiazoline)Cys}-L[dE]IK[dOrn]I[dF]H[dD]N; lactam 4-C), for which the virus titer stood at 0.0005 PFU/cell with HSV-2 (setting [6]); 0.0007 PFU/cell in the assay on HSV-2 (setting [7]); 0.007 PFU/cell with HSV-2 (setting [8]); 0.005 PFU/cell in the assay on HSV-2 (setting [9]); 0.06 PFU/cell with HSV-2 (setting [10]); 0.06 PFU/cell in the assay with HSV-2 (setting [11]). Besides, the virus titer with HSV-2 (setting [12]) is on record as 0.06 PFU/cell; in the assay on HSV-2 (setting [13]), 0.03 PFU/cell. In addition, the “activity against HSV-1 when used alone” value with HSV-1 was “inactive”.
On to `Nc1nc2c(ncn2COCCO)c(=O)[nH]1` [Acyclovir, acyclovir], for which the skin lesion score with HSV-1 strain MP-12 (day 1, topical twice daily) is listed as 0.50; in the assay with HSV-1 strain MP-12 (day 2, topical twice daily) it was 0.50; in the assay with HSV-1 strain MP-12 (day 3, topical twice daily) it was 0.28; in the assay on HSV-1 strain MP-12 (day 4, topical twice daily), 0.20; in the assay on HSV-1 strain MP-12 (day 5, topical twice daily), 0.20; with HSV-1 strain MP-12 (day 6, topical twice daily), 0.20. Also, the skin lesion score in the assay with HSV-1 strain MP-12 (day 7, topical twice daily) amounted to 0.15; in the assay on HSV-1 strain MP-12 (day 8, topical twice daily) it was 0.00; in the assay with HSV-1 strain MP-12 (day 9, topical twice daily), 0.00; with HSV-1 strain MP-12 (day 10, topical twice daily), 0.00; in the assay on HSV-1 strain MP-12 (day 11, topical twice daily), 0.00; in the assay with HSV-2 strain HG-52 (day 1, topical twice daily), 0.50. For the same compound, the skin lesion score in the assay on HSV-2 strain HG-52 (day 2, topical twice daily) amounted to 0.50; with HSV-2 strain HG-52 (day 3, topical twice daily), 0.63; with HSV-2 strain HG-52 (day 4, topical twice daily), 0.67; in the assay with HSV-2 strain HG-52 (day 5, topical twice daily), 1.23; in the assay with HSV-2 strain HG-52 (day 6, topical twice daily), 0.57; in the assay with HSV-2 strain HG-52 (day 7, topical twice daily), 0.40. Further, the skin lesion score was determined as 0.13 in the assay on HSV-2 strain HG-52 (day 8, topical twice daily); 0.13 in the assay with HSV-2 strain HG-52 (day 9, topical twice daily); 0.00 in the assay with HSV-2 strain HG-52 (day 10, topical twice daily); 0.00 in the assay on HSV-2 strain HG-52 (day 11, topical twice daily).
